In ChEMBL document CHEMBL3044900, “Synthesis of pregnenolonedanazolethylendiamine conjugate: relationship between descriptors log P, , R m, and V m and its antibacterial activity in S. aureus and V. cholerae” (2011) one finds MIC data, which are given here for five compounds.

A word on the MIC: it is the lowest concentration found to suppress growth. The low end stands for a more susceptible organism, the high end for a less susceptible organism.

≈ marks a conversion by molar mass, not a printed value.

In one assay the test system is Staphylococcus aureus. Put plainly: Antibacterial activity against Staphylococcus aureus ATCC 25923 incubated for 24 hr followed by compound washout measured after 24 hr by dilution method. The assay is classed as functional.
The test system of a further assay is Vibrio cholerae. Put plainly: Antibacterial activity against Vibrio cholerae ATCC 14035 incubated for 24 hr followed by compound washout measured after 24 hr by dilution method. The assay is classed as functional.

For the compound `C#C[C@@]1(OC(=O)CCC(=O)O[C@H]2CC[C@@]3(C)C(=CC[C@H]4[C@@H]5CC[C@H](C(C)=O)[C@@]5(C)CC[C@@H]43)C2)CC[C@H]2[C@@H]3CCC4=C(CNCCN)c5oncc5C[C@]4(C)[C@H]3CC[C@@]21C`, the minimal inhibitory concentration (MIC) with Staphylococcus aureus (ATCC 25923, 24 h) stood at 1.23 µM (≈ 0.994 µg/mL); with Vibrio cholerae (ATCC 14035, 24 h) it was 1.23 µM (≈ 0.994 µg/mL).
`CO/N=C(\C(=O)N[C@@H]1C(=O)N2C(C(=O)O)=C(COC(C)=O)CS[C@H]12)c1csc(N)n1` [CEFOTAXIME]: the MIC with Staphylococcus aureus (ATCC 25923, 24 h) is 0.261 µM (≈ 0.119 µg/mL); against Vibrio cholerae (ATCC 14035, 24 h), 0.523 µM (≈ 0.238 µg/mL).
In the same order, the values of `O=C(O)c1cn(C2CC2)c2cc(N3CCNCC3)c(F)cc2c1=O` [CIPROFLOXACIN] are 0.377 µM (≈ 0.125 µg/mL) and 3.01 µM (≈ 0.997 µg/mL).
In the same order, the values of `C#C[C@@]1(OC(=O)CCC(=O)O[C@H]2CC[C@@]3(C)C(=CC[C@H]4[C@@H]5CC[C@H](C(C)=O)[C@@]5(C)CC[C@@H]43)C2)CC[C@H]2[C@@H]3CCC4=Cc5oncc5C[C@]4(C)[C@H]3CC[C@@]21C` [DANAZOL-PREGNENOLONE] are 0.663 µM (≈ 0.488 µg/mL) and 1.32 µM (≈ 0.972 µg/mL).
As to GENTAMICIN, the results for the MIC in the assay with Staphylococcus aureus and in the assay with Vibrio cholerae were 0.274 µM and 0.0134 µM, respectively.
